From PubChem BioAssay (NCI)
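96-well plates; 48 h exposure; 5 concentrations. Endpoints by linear interpolation between flanking doses. Not reached: highest tested concentration assigned. GI50 = concentration required for 50% inhibition of growth. TGI marks complete inhibition of growth.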

What was measured:
Experiment in all cases: NCI-60 cell line screen, 48 h
HOP-62 NSCLC = test system: HOP-62 NSCLC
HCT-15 colon = test system: HCT-15 colon
IGROV1 ovarian = test system: IGROV1 ovarian
TK-10 renal = test system: TK-10 renal
K-562 leukemia = test system: K-562 leukemia
SW-620 colon = test system: SW-620 colon
MALME-3M melanoma = test system: MALME-3M melanoma
MCF7 breast = test system: MCF7 breast
MDA-MB-231 breast = test system: MDA-MB-231 breast
SK-MEL-28 melanoma = test system: SK-MEL-28 melanoma
PC-3 prostate = test system: PC-3 prostate
OVCAR-5 ovarian = test system: OVCAR-5 ovarian
HOP-92 NSCLC = test system: HOP-92 NSCLC
UACC-257 melanoma = test system: UACC-257 melanoma
EKVX NSCLC = test system: EKVX NSCLC
M14 melanoma = test system: M14 melanoma
SN12C renal = test system: SN12C renal
NCI-H226 lung = test system: NCI-H226 lung
SK-OV-3 ovarian = test system: SK-OV-3 ovarian
MOLT-4 leukemia = test system: MOLT-4 leukemia
RXF 393 renal = test system: RXF 393 renal
NCI/ADR-RES ovarian = test system: NCI/ADR-RES ovarian
OVCAR-4 ovarian = test system: OVCAR-4 ovarian
786-0 renal = test system: 786-0 renal
NCI-H522 lung = test system: NCI-H522 lung
HS 578T breast = test system: HS 578T breast
UACC-62 melanoma = test system: UACC-62 melanoma
HCT-116 colon = test system: HCT-116 colon
SR leukemia = test system: SR leukemia
SK-MEL-5 melanoma = test system: SK-MEL-5 melanoma
SF-539 CNS = test system: SF-539 CNS
SNB-75 CNS = test system: SNB-75 CNS
MDA-MB-435 = test system: MDA-MB-435
NCI-H23 lung = test system: NCI-H23 lung
UO-31 renal = test system: UO-31 renal
ACHN renal = test system: ACHN renal
BT-549 breast = test system: BT-549 breast
DU-145 prostate = test system: DU-145 prostate
NCI-H460 lung = test system: NCI-H460 lung
CAKI-1 renal = test system: CAKI-1 renal
SF-268 CNS = test system: SF-268 CNS
U251 CNS = test system: U251 CNS
RPMI-8226 leukemia = test system: RPMI-8226 leukemia
SNB-19 CNS = test system: SNB-19 CNS
HT29 colon = test system: HT29 colon
SF-295 CNS = test system: SF-295 CNS
A549 NSCLC = test system: A549 NSCLC
COLO 205 colon = test system: COLO 205 colon
CCRF-CEM leukemia = test system: CCRF-CEM leukemia
OVCAR-3 ovarian = test system: OVCAR-3 ovarian
OVCAR-8 ovarian = test system: OVCAR-8 ovarian
SK-MEL-2 melanoma = test system: SK-MEL-2 melanoma
LOX IMVI melanoma = test system: LOX IMVI melanoma
T-47D breast = test system: T-47D breast
KM12 colon = test system: KM12 colon
HCC-2998 colon = test system: HCC-2998 colon
HL-60(TB) leukemia = test system: HL-60(TB) leukemia
A498 renal = test system: A498 renal

COc1cc(/C=C/c2ccc(OC)c(OC)c2)cc(OC)c1
TGI (HOP-62 NSCLC): > 100 µM | TGI (HCT-15 colon): 23.7 µM | TGI (IGROV1 ovarian): > 100 µM | TGI (TK-10 renal): > 100 µM | TGI (K-562 leukemia): > 100 µM | TGI (SW-620 colon): > 100 µM | TGI (MALME-3M melanoma): > 100 µM | TGI (MCF7 breast): > 100 µM | TGI (MDA-MB-231 breast): 52 µM | TGI (SK-MEL-28 melanoma): > 100 µM | TGI (PC-3 prostate): > 100 µM | TGI (OVCAR-5 ovarian): > 100 µM | TGI (HOP-92 NSCLC): > 100 µM | TGI (UACC-257 melanoma): > 100 µM | TGI (EKVX NSCLC): > 100 µM | TGI (M14 melanoma): 67.9 µM | TGI (SN12C renal): 96.6 µM | TGI (NCI-H226 lung): 74.4 µM | TGI (SK-OV-3 ovarian): > 100 µM | TGI (MOLT-4 leukemia): > 100 µM | TGI (RXF 393 renal): 50 µM | TGI (NCI/ADR-RES ovarian): 60 µM | TGI (OVCAR-4 ovarian): > 100 µM | TGI (786-0 renal): 44.7 µM | TGI (NCI-H522 lung): 66.4 µM | TGI (HS 578T breast): 89.8 µM | TGI (UACC-62 melanoma): 63.5 µM | TGI (HCT-116 colon): > 100 µM | TGI (SR leukemia): > 100 µM | TGI (SK-MEL-5 melanoma): 41.1 µM | TGI (SF-539 CNS): > 100 µM | TGI (SNB-75 CNS): > 100 µM | TGI (MDA-MB-435): > 100 µM | TGI (NCI-H23 lung): 65.3 µM | TGI (UO-31 renal): 83.1 µM | TGI (ACHN renal): 89.8 µM | TGI (BT-549 breast): 72.3 µM | TGI (DU-145 prostate): > 100 µM | TGI (NCI-H460 lung): 73.6 µM | TGI (CAKI-1 renal): 94.1 µM | TGI (SF-268 CNS): > 100 µM | TGI (U251 CNS): 69 µM | TGI (RPMI-8226 leukemia): > 100 µM | TGI (SNB-19 CNS): > 100 µM | TGI (HT29 colon): 94.4 µM | TGI (SF-295 CNS): 68.9 µM | TGI (A549 NSCLC): > 100 µM | TGI (COLO 205 colon): 39.7 µM | TGI (CCRF-CEM leukemia): > 100 µM | TGI (OVCAR-3 ovarian): 69 µM | TGI (OVCAR-8 ovarian): > 100 µM | TGI (SK-MEL-2 melanoma): > 100 µM | TGI (LOX IMVI melanoma): 41.8 µM | TGI (T-47D breast): > 100 µM | TGI (KM12 colon): 40.6 µM

C[C@H](O)C(=O)N1CCC(CCn2c(Sc3cc4c(cc3Br)OCO4)nc3c(N)ncnc32)CC1
GI50 (HOP-62 NSCLC): 1.73 µM | TGI (HOP-62 NSCLC): > 100 µM | GI50 (HCT-15 colon): 1.3 µM | TGI (HCT-15 colon): > 100 µM | GI50 (IGROV1 ovarian): 1.32 µM | TGI (IGROV1 ovarian): > 100 µM | GI50 (TK-10 renal): 1.3 µM | TGI (TK-10 renal): > 100 µM | GI50 (HCC-2998 colon): 0.867 µM | TGI (HCC-2998 colon): > 43.3 µM | GI50 (K-562 leukemia): 0.472 µM | TGI (K-562 leukemia): > 100 µM | GI50 (SW-620 colon): 0.49 µM | TGI (SW-620 colon): > 100 µM | GI50 (MALME-3M melanoma): 0.807 µM | TGI (MALME-3M melanoma): > 100 µM | GI50 (MCF7 breast): 0.368 µM | TGI (MCF7 breast): > 100 µM | GI50 (MDA-MB-231 breast): 1.46 µM | TGI (MDA-MB-231 breast): 31.9 µM | GI50 (SK-MEL-28 melanoma): 1.49 µM | TGI (SK-MEL-28 melanoma): > 100 µM | GI50 (PC-3 prostate): 1.16 µM | TGI (PC-3 prostate): > 100 µM | GI50 (OVCAR-5 ovarian): 2.74 µM | TGI (OVCAR-5 ovarian): > 100 µM | GI50 (HOP-92 NSCLC): 2.19 µM | TGI (HOP-92 NSCLC): > 100 µM | GI50 (UACC-257 melanoma): 2.13 µM | TGI (UACC-257 melanoma): > 100 µM | GI50 (HL-60(TB) leukemia): 0.409 µM | TGI (HL-60(TB) leukemia): 14.5 µM | GI50 (EKVX NSCLC): 4.11 µM | TGI (EKVX NSCLC): > 100 µM | GI50 (M14 melanoma): 0.965 µM | TGI (M14 melanoma): > 100 µM | GI50 (SN12C renal): 0.725 µM | TGI (SN12C renal): > 100 µM | GI50 (NCI-H226 lung): 4.01 µM | TGI (NCI-H226 lung): > 100 µM | GI50 (SK-OV-3 ovarian): 0.48 µM | TGI (SK-OV-3 ovarian): > 100 µM | GI50 (MOLT-4 leukemia): 0.55 µM | TGI (MOLT-4 leukemia): 11.8 µM | GI50 (RXF 393 renal): 2.57 µM | TGI (RXF 393 renal): > 31.6 µM | GI50 (NCI/ADR-RES ovarian): 13.9 µM | TGI (NCI/ADR-RES ovarian): > 100 µM | GI50 (OVCAR-4 ovarian): > 20.1 µM | TGI (OVCAR-4 ovarian): > 100 µM | GI50 (786-0 renal): 3.77 µM | TGI (786-0 renal): > 100 µM | GI50 (NCI-H522 lung): 0.791 µM | TGI (NCI-H522 lung): > 52.2 µM | TGI (HS 578T breast): > 100 µM | GI50 (UACC-62 melanoma): 0.862 µM | GI50 (HCT-116 colon): 0.461 µM | TGI (HCT-116 colon): > 100 µM | GI50 (SK-MEL-5 melanoma): 2.95 µM | TGI (SK-MEL-5 melanoma): > 100 µM | GI50 (SF-539 CNS): 1.73 µM | TGI (SF-539 CNS): > 100 µM | GI50 (SNB-75 CNS): 9.04 µM | TGI (SNB-75 CNS): > 100 µM | GI50 (MDA-MB-435): 0.577 µM | TGI (MDA-MB-435): > 100 µM | GI50 (NCI-H23 lung): 0.689 µM | TGI (NCI-H23 lung): > 100 µM | GI50 (UO-31 renal): 2.05 µM | TGI (UO-31 renal): > 100 µM | GI50 (ACHN renal): 0.84 µM | TGI (ACHN renal): > 100 µM | GI50 (BT-549 breast): 1.93 µM | TGI (BT-549 breast): > 100 µM | GI50 (DU-145 prostate): 0.642 µM | TGI (DU-145 prostate): > 100 µM | GI50 (NCI-H460 lung): 0.432 µM | TGI (NCI-H460 lung): > 100 µM | GI50 (CAKI-1 renal): 2.26 µM | TGI (CAKI-1 renal): > 100 µM | GI50 (SF-268 CNS): 8.83 µM | TGI (SF-268 CNS): > 100 µM | GI50 (U251 CNS): 2.14 µM | TGI (U251 CNS): > 100 µM | GI50 (RPMI-8226 leukemia): 4.19 µM | TGI (RPMI-8226 leukemia): > 100 µM | GI50 (A498 renal): 3.35 µM | TGI (A498 renal): > 100 µM | GI50 (SNB-19 CNS): 3.7 µM | TGI (SNB-19 CNS): > 100 µM | GI50 (HT29 colon): 0.432 µM | TGI (HT29 colon): > 100 µM | GI50 (SF-295 CNS): 0.741 µM | TGI (SF-295 CNS): > 22.8 µM | GI50 (A549 NSCLC): 0.869 µM | TGI (A549 NSCLC): > 100 µM | GI50 (COLO 205 colon): 0.467 µM | TGI (COLO 205 colon): > 100 µM | GI50 (CCRF-CEM leukemia): 0.49 µM | TGI (CCRF-CEM leukemia): > 100 µM | GI50 (OVCAR-3 ovarian): 3.28 µM | TGI (OVCAR-3 ovarian): > 100 µM | GI50 (OVCAR-8 ovarian): 0.827 µM | TGI (OVCAR-8 ovarian): > 100 µM | GI50 (SK-MEL-2 melanoma): 4.63 µM | TGI (SK-MEL-2 melanoma): > 100 µM | GI50 (LOX IMVI melanoma): 0.596 µM | TGI (LOX IMVI melanoma): 6.9 µM | GI50 (T-47D breast): 2.15 µM | TGI (T-47D breast): > 100 µM | GI50 (KM12 colon): 0.424 µM | TGI (KM12 colon): 9.86 µM
